Results on seven compounds are retold here after paper PMC7160832, “Phosphonium Ionic Liquid-Infused Poly(vinyl chloride) Surfaces Possessing Potent Antifouling Properties” (ACS Omega, 2020).

The test system of data set [1] is S. aureus (ATCC 6538). Briefly: MIC and MBC by standardized broth dilution. The class given is cell-based, Staphylococcus aureus. Conditions: for MBC: 99.9% killing; for MBC / MIC: >1000 = beyond tested concentration range; for MIC: 24 h, MHB. The protocol: (§1) S. aureus (ATCC 6538) and P. aeruginosa (PA01) were maintained on cryopreservative beads (Microbank) at −80 °C and cultivated in 100 mL of MHB at 37 °C when needed. Overnight broth was centrifuged (3000 rpm, 12 min) and resuspended in PBS to achieve a final inoculum density of approximately 1 × 10^8 cfu mL^–1.
(§2) The microbiological performance of the ionic liquids was assessed using MHB inoculated with S. aureus or P. aeruginosa according to a standardized broth dilution method.[25] A stock solution of 0.2% w/v of ionic liquid was freshly prepared in sterile MHB by stirring at 37 °C until dissolved and then filtered using a sterile 0.22 μm membrane. Serial twofold dilutions were prepared to provide a concentration range of […] to 0.1% w/v. Inoculum was diluted in MHB to produce a final inoculum density of 1 × 10^6 cfu mL^–1, verified by viable count. The inoculum (100 μL) was added to an equal volume of ionic liquid and incubated for 24 h (37 °C, 100 rpm). Positive (100 μL ofMHB/100 μL of inoculum) and negative controls (200 μL of MHB) were included in each assay. A minimum of five replicates of each dilution and controls were included.
(§3) Determination of the MIC was taken as the lowest concentration that produced no visible growth after 24 h incubation.

The test system of data set [2] is P. aeruginosa (PA01). The data set is described as follows: MIC and MBC by standardized broth dilution. Conditions: for MBC: 99.9% killing; for MBC / MIC: >1000 = beyond tested concentration range; for MIC: 24 h, MHB. Format: cell-based, Pseudomonas aeruginosa. The protocol: as §1, §2, §3
(Broth dilution looks for growth in wells or tubes with falling amounts of substance.)

Data set [3] relates to equine erythrocytes. The data set is described as follows: Hemolysis assay of PILs. The class given is cell-based. The conditions noted are these: for hemolysis: 1 h, 37 °C; for hemolytic activity (in words): concentrations up to 25 μg mL^–1, equine erythrocytes. The protocol:
To assess the potential of phosphonium-AOT ionic liquids to illicit a hemolytic effect, ionic liquids were assessed for the ability to induce hemolysis of equine erythrocytes according to a previous method.[51] Briefly, 10 mL of fresh defribrinated equine blood was rinsed three times with an equal volume of PBS by centrifugation at 900g for 15 min. Erythrocytes were resuspended in PBS to a concentration of 4% (v/v). Erythrocyte suspension (100 μL) was added to each well of a 96-well microtiter plate and exposed to varying concentrations of ionic liquid for 1 h at 37 °C in an orbital incubator. Exposed solutions were subsequently centrifuged at 1000g for 15 min, and 100 μL was transferred to a fresh 96-well microtiter plate and spectrophotometrically read at 414 nm to determine hemoglobin release. Hexadecyltrimethylammonium bromide (8 mM) was used as a positive control (100% hemolysis) and PBS as a negative control (0% hemolysis). Samples were run in quadruplicate, and percentage hemolysis was calculated as follows [drawing 1]

On the set-up of data set [4]: method as in PMID 29518336. The conditions noted are these: cited from earlier work.
On the set-up of data set [5]: method as in earlier work. The conditions noted are these: ref 39 (Kruszewska et al.); cited from earlier work.
The subject of data set [6] is P. aeruginosa. The arrangement: method as in PMID 17655912. The conditions noted are these: 10^6 cfu mL^–1 P. aeruginosa inoculum, within 6 h, concentrations as low as 0.08 mg/L; cited from earlier work.
Where [7] appears, read: 5 μg mL^–1, equine erythrocytes.
The mark [8] stands for this setting: 25 μg mL^–1, equine erythrocytes.

Usually aqueous solubility stands for how much of the substance goes into solution per volume.

Where only a bound is given, the exact number is not on record here.

Turning to `CCCCC(CC)COC(=O)CC(C(=O)OCC(CC)CCCC)S(=O)(=O)[O-].CCCC[P+](CCO)(CCCC)CCCC` (stereo not shown) [[P444 2OH][AOT], tributyl(hydroxyethyl)phosphonium docusate], the results for the MBC in data set [1] and in data set [2] (P. aeruginosa) were 250 μg mL^–1 and more than 1000 μg mL^–1, respectively. The MIC in data set [1] was 62.5 μg mL^–1; in data set [2] (P. aeruginosa), more than 1000 μg mL^–1. Also, the values for the hemolysis in data set [3] (setting [7]) and in data set [3] (setting [8]) were less than 10% and 99.39%, respectively.
Regarding `CCCCC(CC)COC(=O)CC(C(=O)OCC(CC)CCCC)S(=O)(=O)[O-].CCCCCCCCCCCCCC[P+](CCCCCC)(CCCCCC)CCCCCC` [[P666 14][AOT], Trihexyl(tetradecyl)phosphonium docusate], in data set [1], the MBC is on record as 1000 μg mL^–1 and the MIC amounted to 500 μg mL^–1. In data set [2] (P. aeruginosa), this compound came in with an MBC of more than 1000 μg mL^–1 and an MIC of more than 1000 μg mL^–1. For the same compound, the “hemolytic activity (in words)” value in data set [3] is recorded as “not hemolytic”.
For the compound `CCCCCCCCCCCCCC[P+](CCCCCC)(CCCCCC)CCCCCC.O=S(=O)([N-]S(=O)(=O)C(F)(F)F)C(F)(F)F` [[P666 14][Tf2N], Trihexyl(tetradecyl)phosphonium bis(trifluoromethylsulfonyl)imide], the MBC in data set [1] and in data set [2] (P. aeruginosa) was more than 1000 μg mL^–1 in each case. Besides, the MIC in data set [1] and in data set [2] (P. aeruginosa) was more than 1000 μg mL^–1 each time. Moreover, the “antibacterial activity / growth inhibition (in words)” value was “no antibacterial activity” in data set [1] (within the tested concentration range) and “no antimicrobial activity” in data set [2] (P. aeruginosa, within the tested concentration range). The aqueous solubility in data set [4] is 260 µM.
As for `CCCCC(CC)COC(=O)CC(C(=O)OCC(CC)CCCC)S(=O)(=O)[O-].CCCCCCCCCCCCCC[P+](CCCCCCCC)(CCCCCCCC)CCCCCCCC` [[P888 14][AOT], trioctyl(tetradecyl)phosphonium docusate], in data set [1], the “MIC potency relative to the other [AOT]-containing ionic liquids” value is listed as 16–128 fold, the MBC stood at 7.81 μg mL^–1 and the MIC was 3.91 μg mL^–1. For the same compound, in data set [2], the “rise of MBC against P. aeruginosa relative to S. aureus” value is listed as 128 fold and the “rise of MIC against P. aeruginosa relative to S. aureus” value turned out to be 64 fold. Further, in data set [2] (P. aeruginosa), the MBC came out at 1000 μg mL^–1 and the MIC is given as 250 μg mL^–1. Also, the hemolysis in data set [3] (setting [7]) was less than 10%. The hemolysis in data set [3] (setting [8]) was 102.3%.
Turning to `CCCCC(CC)COC(=O)CC(C(=O)OCC(CC)CCCC)S(=O)(=O)[O-].CCCCCCCCCCCCCCCCCC[P+](C)(CCCCCCCCCCCCCCCCCC)CCCCCCCCCCCCCCCCCC` [[P181818 1][AOT], trioctadecyl(methyl)phosphonium docusate], in data set [1], the MBC turned out to be 500 μg mL^–1 and the MIC was determined as 250 μg mL^–1. For the same compound, in data set [2] (P. aeruginosa), the MBC was more than 1000 μg mL^–1 and the MIC was more than 1000 μg mL^–1. Also, in data set [3], the “hemolytic activity (in words)” value is given as “not hemolytic”.
Consider `CCCCC(CC)COC(=O)CC(C(=O)OCC(CC)CCCC)S(=O)(=O)O` (stereo not shown) [sodium docusate], for which the MIC in data set [5] is 3000 μg mL^–1.
As for Silver ions, the eradication of inoculum in data set [6] is given as not above 99.999%.
